Laboratory results from ChEMBL document CHEMBL3991601, “The target landscape of clinical kinase drugs” (Science, 2017).
Active and inactive are the calls of the source.

Experiments:
[1] = molecular target: Dual specificity protein kinase CLK3 (Homo sapiens, UniProt P49761); assay type: subcellular, K-562, COLO 205, SK-N-BE(2) and MV-4-11, Cell lysate; conditions: read-out: Kd apparent
[2] = molecular target: Cell division cycle 7-related protein kinase (Homo sapiens, UniProt O00311)
[3] = molecular target: Cyclin-dependent kinase 17 (Homo sapiens, UniProt Q00537)
[4] = molecular target: Dual specificity protein kinase CLK2 (Homo sapiens, UniProt P49760)
[5] = molecular target: T1, ATP-dependent RNA helicase DHX30 (Homo sapiens, UniProt Q7L2E3)
T1 sequence (Q7L2E3 whole entry): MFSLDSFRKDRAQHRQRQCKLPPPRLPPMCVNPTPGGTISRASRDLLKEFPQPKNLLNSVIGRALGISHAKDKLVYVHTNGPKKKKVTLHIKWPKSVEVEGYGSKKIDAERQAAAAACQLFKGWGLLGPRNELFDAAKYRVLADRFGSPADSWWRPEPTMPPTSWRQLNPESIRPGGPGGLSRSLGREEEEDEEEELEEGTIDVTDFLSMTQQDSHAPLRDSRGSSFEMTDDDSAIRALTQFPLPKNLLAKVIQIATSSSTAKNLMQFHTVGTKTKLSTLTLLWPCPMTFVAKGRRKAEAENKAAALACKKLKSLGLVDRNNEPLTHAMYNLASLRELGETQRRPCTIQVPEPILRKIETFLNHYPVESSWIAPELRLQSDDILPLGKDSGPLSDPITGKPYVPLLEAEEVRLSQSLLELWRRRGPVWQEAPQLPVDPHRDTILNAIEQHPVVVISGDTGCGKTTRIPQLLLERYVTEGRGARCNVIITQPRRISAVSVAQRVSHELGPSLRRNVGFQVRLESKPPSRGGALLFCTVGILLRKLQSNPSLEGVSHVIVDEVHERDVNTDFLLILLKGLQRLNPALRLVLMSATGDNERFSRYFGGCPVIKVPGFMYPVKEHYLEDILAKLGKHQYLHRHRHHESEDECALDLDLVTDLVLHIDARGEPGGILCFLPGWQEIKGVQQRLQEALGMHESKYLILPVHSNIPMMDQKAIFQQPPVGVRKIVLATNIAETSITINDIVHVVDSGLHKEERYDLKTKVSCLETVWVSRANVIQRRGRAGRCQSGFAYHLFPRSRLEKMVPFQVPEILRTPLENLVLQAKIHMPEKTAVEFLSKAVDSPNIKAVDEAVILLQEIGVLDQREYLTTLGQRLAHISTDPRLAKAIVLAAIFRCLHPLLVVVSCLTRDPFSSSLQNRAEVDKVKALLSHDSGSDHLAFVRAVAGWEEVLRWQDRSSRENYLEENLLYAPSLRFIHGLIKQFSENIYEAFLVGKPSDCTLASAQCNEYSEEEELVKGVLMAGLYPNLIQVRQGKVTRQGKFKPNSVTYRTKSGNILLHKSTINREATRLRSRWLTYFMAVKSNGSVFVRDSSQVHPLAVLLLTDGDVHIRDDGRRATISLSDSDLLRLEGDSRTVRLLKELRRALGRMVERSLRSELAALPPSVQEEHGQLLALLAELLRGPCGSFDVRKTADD

Myosin-10 = Myosin-10 (Homo sapiens, UniProt P35580)
[6] = molecular target: Serine/threonine-protein kinase Nek7 (Homo sapiens, UniProt Q8TDX7)
Obg-like ATPase 1 = Obg-like ATPase 1 (Homo sapiens, UniProt Q9NTK5)
[7] = molecular target: Phosphatidylethanolamine-binding protein 1 (Homo sapiens, UniProt P30086)
[8] = molecular target: Serine/threonine-protein kinase pim-2 (Homo sapiens, UniProt Q9P1W9)
[9] = molecular target: Serine/threonine-protein kinase 24 (Homo sapiens, UniProt Q9Y6E0)
Ephrin type-A receptor 1 = molecular target: T2, Ephrin type-A receptor 1 (Homo sapiens, UniProt P21709)
T2 sequence (P21709 whole entry): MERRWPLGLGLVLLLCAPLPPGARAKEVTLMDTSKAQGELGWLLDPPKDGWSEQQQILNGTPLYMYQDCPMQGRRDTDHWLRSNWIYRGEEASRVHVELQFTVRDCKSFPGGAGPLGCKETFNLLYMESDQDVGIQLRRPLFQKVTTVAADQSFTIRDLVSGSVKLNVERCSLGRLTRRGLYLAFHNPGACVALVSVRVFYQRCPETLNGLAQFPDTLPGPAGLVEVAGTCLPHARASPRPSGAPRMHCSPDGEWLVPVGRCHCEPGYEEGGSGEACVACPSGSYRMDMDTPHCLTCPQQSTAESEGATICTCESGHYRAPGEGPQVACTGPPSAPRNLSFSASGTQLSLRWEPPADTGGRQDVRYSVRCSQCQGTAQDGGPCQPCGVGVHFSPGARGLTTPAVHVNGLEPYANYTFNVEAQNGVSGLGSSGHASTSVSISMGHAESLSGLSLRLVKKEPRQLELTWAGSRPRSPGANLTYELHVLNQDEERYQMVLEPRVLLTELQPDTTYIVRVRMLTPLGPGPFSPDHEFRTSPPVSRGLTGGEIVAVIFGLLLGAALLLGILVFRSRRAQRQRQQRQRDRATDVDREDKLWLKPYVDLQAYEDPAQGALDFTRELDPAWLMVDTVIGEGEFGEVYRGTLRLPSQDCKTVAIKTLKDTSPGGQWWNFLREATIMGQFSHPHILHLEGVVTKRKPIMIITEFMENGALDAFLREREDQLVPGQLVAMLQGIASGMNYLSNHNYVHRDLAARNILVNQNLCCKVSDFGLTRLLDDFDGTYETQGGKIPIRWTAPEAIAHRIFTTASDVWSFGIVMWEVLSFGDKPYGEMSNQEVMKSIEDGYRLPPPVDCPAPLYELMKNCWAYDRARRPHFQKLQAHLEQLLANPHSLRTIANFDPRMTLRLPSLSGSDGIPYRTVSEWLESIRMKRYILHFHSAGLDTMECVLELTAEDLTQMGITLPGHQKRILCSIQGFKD

[10] = molecular target: G protein-coupled receptor kinase 6 (Homo sapiens, UniProt P43250)
[11] = molecular target: Serine/threonine-protein kinase PAK 6 (Homo sapiens, UniProt Q9NQU5)
[12] = molecular target: Choline-phosphate cytidylyltransferase A (Homo sapiens, UniProt P49585)
Misshapen-like kinase 1 = Misshapen-like kinase 1 (Homo sapiens, UniProt Q8N4C8)
Note: in the data inactive means no Kd found up to 30 µM.

Sequence of Serine/threonine-protein kinase 24 (Q9Y6E0 whole entry): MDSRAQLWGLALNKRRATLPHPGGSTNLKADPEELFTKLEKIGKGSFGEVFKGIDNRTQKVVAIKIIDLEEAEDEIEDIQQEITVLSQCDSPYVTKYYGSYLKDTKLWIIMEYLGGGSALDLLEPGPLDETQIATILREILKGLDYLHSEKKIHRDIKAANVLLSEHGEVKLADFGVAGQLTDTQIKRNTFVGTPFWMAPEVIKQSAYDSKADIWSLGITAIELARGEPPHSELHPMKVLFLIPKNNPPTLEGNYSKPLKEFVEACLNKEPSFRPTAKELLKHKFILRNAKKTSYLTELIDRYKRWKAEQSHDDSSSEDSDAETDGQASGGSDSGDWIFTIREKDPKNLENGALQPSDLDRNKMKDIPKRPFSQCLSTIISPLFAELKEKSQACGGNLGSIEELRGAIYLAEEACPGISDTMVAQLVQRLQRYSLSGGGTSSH
Sequence of Cyclin-dependent kinase 17 (Q00537 whole entry): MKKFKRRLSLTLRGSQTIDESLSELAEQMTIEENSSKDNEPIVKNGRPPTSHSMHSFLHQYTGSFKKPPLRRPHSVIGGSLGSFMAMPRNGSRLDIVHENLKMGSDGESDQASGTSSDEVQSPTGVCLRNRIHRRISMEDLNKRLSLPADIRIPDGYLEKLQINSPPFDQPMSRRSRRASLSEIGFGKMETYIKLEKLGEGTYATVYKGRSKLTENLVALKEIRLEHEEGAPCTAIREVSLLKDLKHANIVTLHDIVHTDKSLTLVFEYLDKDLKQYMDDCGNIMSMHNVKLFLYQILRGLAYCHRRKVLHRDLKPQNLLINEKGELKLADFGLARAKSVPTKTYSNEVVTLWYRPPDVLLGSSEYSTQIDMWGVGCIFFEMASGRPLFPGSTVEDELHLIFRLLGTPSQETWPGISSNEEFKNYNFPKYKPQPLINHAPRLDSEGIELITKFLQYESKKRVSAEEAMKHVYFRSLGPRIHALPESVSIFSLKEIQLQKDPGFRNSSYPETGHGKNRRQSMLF
Sequence of Serine/threonine-protein kinase PAK 6 (Q9NQU5 whole entry): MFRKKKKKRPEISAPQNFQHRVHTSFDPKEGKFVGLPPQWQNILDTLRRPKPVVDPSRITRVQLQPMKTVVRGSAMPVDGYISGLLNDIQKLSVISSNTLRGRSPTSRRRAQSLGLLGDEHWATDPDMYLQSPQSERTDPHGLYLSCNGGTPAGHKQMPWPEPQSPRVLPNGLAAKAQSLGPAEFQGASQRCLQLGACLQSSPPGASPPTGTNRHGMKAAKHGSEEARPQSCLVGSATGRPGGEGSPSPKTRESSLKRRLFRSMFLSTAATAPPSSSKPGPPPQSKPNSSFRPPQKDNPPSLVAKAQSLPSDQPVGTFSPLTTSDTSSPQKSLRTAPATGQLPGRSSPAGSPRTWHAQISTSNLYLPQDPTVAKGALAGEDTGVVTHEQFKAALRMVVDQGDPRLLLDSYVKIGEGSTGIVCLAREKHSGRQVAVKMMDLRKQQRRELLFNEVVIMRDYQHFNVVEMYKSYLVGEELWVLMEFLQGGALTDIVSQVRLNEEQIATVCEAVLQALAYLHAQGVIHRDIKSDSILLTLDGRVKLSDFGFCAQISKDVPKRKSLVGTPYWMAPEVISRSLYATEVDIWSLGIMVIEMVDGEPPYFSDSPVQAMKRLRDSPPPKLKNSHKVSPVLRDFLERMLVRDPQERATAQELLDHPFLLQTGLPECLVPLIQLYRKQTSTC
Sequence of Myosin-10 (P35580 whole entry): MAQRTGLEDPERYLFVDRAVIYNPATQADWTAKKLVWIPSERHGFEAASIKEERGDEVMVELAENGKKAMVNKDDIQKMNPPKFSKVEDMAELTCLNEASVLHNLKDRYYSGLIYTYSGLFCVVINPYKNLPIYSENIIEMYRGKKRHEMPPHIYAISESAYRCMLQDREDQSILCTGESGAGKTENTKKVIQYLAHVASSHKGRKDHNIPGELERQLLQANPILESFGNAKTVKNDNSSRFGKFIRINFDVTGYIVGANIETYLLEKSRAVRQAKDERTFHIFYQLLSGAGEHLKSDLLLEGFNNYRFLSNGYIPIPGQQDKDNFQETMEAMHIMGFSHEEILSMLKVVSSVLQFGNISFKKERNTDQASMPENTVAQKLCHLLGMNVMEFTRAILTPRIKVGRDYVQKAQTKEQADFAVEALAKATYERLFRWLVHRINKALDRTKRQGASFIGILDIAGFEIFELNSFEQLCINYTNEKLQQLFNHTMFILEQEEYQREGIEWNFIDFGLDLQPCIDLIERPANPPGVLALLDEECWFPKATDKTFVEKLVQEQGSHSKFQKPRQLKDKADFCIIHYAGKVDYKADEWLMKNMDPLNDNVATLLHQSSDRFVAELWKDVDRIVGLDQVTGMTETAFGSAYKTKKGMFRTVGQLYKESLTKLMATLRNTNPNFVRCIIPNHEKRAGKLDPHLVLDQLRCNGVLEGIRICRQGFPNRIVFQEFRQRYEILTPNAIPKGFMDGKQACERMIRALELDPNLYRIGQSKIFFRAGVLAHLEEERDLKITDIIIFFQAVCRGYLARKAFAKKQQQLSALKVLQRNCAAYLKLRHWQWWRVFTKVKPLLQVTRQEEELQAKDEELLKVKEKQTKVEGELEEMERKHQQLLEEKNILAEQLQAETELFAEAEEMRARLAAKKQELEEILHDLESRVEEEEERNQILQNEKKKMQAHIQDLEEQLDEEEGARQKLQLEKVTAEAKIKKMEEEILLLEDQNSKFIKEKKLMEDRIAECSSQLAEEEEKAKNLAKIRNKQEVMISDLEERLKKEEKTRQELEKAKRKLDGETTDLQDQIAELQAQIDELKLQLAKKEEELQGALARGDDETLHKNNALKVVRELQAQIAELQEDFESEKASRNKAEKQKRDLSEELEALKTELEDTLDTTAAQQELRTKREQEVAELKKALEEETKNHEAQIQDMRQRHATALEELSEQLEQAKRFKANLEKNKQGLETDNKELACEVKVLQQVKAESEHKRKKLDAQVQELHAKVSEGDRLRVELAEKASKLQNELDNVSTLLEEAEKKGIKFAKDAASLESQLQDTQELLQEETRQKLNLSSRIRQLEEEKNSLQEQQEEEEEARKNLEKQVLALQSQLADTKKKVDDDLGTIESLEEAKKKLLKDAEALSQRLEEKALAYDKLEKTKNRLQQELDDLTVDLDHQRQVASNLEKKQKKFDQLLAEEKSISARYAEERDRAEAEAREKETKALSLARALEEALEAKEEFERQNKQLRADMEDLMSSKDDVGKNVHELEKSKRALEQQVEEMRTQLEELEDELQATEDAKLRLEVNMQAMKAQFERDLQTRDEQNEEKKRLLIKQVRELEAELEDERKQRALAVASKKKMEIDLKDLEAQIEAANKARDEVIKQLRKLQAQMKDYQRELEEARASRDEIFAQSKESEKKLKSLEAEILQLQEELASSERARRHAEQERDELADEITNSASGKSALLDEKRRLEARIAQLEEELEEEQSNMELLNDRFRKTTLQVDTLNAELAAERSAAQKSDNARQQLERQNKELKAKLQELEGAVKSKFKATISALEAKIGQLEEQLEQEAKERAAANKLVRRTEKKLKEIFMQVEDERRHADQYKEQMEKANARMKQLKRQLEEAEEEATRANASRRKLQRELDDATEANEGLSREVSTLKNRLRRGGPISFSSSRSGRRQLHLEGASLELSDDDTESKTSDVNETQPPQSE
Sequence of Choline-phosphate cytidylyltransferase A (P49585 whole entry): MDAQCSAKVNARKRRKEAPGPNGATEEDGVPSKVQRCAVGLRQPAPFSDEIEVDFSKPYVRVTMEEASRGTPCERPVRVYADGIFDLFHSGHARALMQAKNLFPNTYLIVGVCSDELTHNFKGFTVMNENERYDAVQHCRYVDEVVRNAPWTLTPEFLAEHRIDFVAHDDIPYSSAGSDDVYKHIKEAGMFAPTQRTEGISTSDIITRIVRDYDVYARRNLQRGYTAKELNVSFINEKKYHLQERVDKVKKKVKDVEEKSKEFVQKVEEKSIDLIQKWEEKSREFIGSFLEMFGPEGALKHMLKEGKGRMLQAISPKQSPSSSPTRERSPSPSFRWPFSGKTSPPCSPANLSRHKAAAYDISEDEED
Sequence of Phosphatidylethanolamine-binding protein 1 (P30086 whole entry): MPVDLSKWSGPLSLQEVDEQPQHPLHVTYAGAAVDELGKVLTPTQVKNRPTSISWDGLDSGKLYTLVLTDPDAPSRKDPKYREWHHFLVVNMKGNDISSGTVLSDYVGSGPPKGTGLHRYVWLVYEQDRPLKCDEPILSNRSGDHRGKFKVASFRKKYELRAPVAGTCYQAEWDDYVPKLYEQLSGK
Sequence of Dual specificity protein kinase CLK2 (P49760 whole entry): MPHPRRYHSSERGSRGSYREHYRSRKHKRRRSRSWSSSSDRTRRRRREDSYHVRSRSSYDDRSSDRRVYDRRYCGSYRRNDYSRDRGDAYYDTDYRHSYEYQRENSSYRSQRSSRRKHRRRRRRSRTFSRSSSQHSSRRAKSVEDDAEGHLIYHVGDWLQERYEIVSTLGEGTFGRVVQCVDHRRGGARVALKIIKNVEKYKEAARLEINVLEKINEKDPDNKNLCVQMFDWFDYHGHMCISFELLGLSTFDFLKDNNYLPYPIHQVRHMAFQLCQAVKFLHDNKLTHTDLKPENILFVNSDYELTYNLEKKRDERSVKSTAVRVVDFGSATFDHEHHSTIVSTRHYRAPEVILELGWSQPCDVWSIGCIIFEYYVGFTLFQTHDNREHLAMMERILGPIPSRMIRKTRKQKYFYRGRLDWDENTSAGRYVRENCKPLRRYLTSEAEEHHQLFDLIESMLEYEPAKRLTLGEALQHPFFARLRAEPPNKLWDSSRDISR
Sequence of Serine/threonine-protein kinase pim-2 (Q9P1W9 whole entry): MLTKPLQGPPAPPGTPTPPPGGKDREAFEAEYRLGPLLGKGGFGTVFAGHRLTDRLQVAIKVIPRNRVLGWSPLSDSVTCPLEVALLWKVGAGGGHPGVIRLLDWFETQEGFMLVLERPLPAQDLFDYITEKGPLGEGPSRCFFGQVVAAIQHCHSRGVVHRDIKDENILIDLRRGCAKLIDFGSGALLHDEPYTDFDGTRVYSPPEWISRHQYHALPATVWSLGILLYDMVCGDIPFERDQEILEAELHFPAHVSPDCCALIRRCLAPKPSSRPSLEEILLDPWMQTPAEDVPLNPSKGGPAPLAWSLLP

Row | Kd [1] | Kd [2] | Kd [3] | Kd [4] | Kd [5] | Kd (Myosin-10) | Kd [6] | Kd (Obg-like ATPase 1) | Kd [7] | Kd [8] | Kd [9] | Kd (Ephrin type-A receptor 1) | Kd [10] | Kd [11] | Kd [12] | Kd (Misshapen-like kinase 1) | SMILES
1 | > 30 µM (inactive) | > 30 µM (inactive) | > 30 µM (inactive) | > 30 µM (inactive) | > 30 µM (inactive) | > 30 µM (inactive) | > 30 µM (inactive) | > 30 µM (inactive) | > 30 µM (inactive) | > 30 µM (inactive) | > 30 µM (inactive) | – | – | – | – | – | CNS(=O)(=O)Nc1nccc(Cc2c(C)c3ccc(Oc4ncccn4)cc3oc2=O)c1F [AVUTOMETINIB]
2 | > 30 µM (inactive) | > 30 µM (inactive) | > 30 µM (inactive) | > 30 µM (inactive) | > 30 µM (inactive) | > 30 µM (inactive) | – | – | – | > 30 µM (inactive) | > 30 µM (inactive) | > 30 µM (inactive) | > 30 µM (inactive) | > 30 µM (inactive) | – | – | COc1cc(CCc2cc(NC(=O)c3ccc(N4C[C@@H](C)N[C@@H](C)C4)cc3)n[nH]2)cc(OC)c1 [AZD-4547]
3 | > 30 µM (inactive) | – | > 30 µM (inactive) | > 30 µM (inactive) | – | > 30 µM (inactive) | > 30 µM (inactive) | > 30 µM (inactive) | > 30 µM (inactive) | > 30 µM (inactive) | – | > 30 µM (inactive) | > 30 µM (inactive) | – | > 30 µM (inactive) | – | Cc1ccc(NC(=O)c2ccc(CN3CC[C@H](N(C)C)C3)c(C(F)(F)F)c2)cc1Nc1nccc(-c2cncnc2)n1 [BAFETINIB]
4 | > 30 µM (inactive) | – | > 30 µM (inactive) | > 30 µM (inactive) | > 30 µM (inactive) | > 30 µM (inactive) | > 30 µM (inactive) | – | > 30 µM (inactive) | > 30 µM (inactive) | > 30 µM (inactive) | > 30 µM (inactive) | > 30 µM (inactive) | > 30 µM (inactive) | > 30 µM (inactive) | – | Cc1cc2c(F)c(Oc3ncnn4cc(OC[C@@H](C)OC(=O)[C@H](C)N)c(C)c34)ccc2[nH]1 [BRIVANIB ALANINATE]
5 | > 30 µM (inactive) | > 30 µM (inactive) | > 30 µM (inactive) | > 30 µM (inactive) | > 30 µM (inactive) | > 30 µM (inactive) | – | > 30 µM (inactive) | > 30 µM (inactive) | – | > 30 µM (inactive) | > 30 µM (inactive) | > 30 µM (inactive) | – | 0.041 µM | > 30 µM (inactive) | COC(=O)N[C@@H](C)CNc1nccc(-c2cn(C(C)C)nc2-c2cc(Cl)cc(NS(C)(=O)=O)c2F)n1 [ENCORAFENIB]
6 | > 30 µM (inactive) | > 30 µM (inactive) | > 30 µM (inactive) | > 30 µM (inactive) | > 30 µM (inactive) | > 30 µM (inactive) | > 30 µM (inactive) | > 30 µM (inactive) | > 30 µM (inactive) | > 30 µM (inactive) | > 30 µM (inactive) | > 30 µM (inactive) | > 30 µM (inactive) | > 30 µM (inactive) | > 30 µM (inactive) | – | COCCNCc1ccc(-c2cc3nccc(Oc4ccc(NC(=S)NC(=O)Cc5ccc(F)cc5)cc4F)c3s2)nc1 [GLESATINIB]
7 | > 30 µM (inactive) | > 30 µM (inactive) | > 30 µM (inactive) | 0.0004 µM (active) | > 30 µM (inactive) | > 30 µM (inactive) | > 30 µM (inactive) | > 30 µM (inactive) | – | – | > 30 µM (inactive) | > 30 µM (inactive) | > 30 µM (inactive) | > 30 µM (inactive) | – | > 30 µM (inactive) | O=C1NC(=O)/C(=C/c2ccc3nccc(-c4ccncc4)c3c2)S1 [GSK-1059615]
8 | > 30 µM (inactive) | > 30 µM (inactive) | > 30 µM (inactive) | > 30 µM (inactive) | > 30 µM (inactive) | > 30 µM (inactive) | > 30 µM (inactive) | – | > 30 µM (inactive) | > 30 µM (inactive) | – | > 30 µM (inactive) | > 30 µM (inactive) | > 30 µM (inactive) | > 30 µM (inactive) | – | Cn1cc(-c2ccc3nnc(C(F)(F)c4ccc5ncccc5c4)n3n2)cn1 [JNJ-38877605]
9 | > 30 µM (inactive) | – | 0.719 µM (active) | > 30 µM (inactive) | > 30 µM (inactive) | > 30 µM (inactive) | > 30 µM (inactive) | > 30 µM (inactive) | > 30 µM (inactive) | > 30 µM (inactive) | > 30 µM (inactive) | 0.007 µM | > 30 µM (inactive) | – | > 30 µM (inactive) | – | CNC(=O)c1cc(Oc2ccc(NC(=O)Nc3ccc(Cl)c(C(F)(F)F)c3)c(F)c2)ccn1 [REGORAFENIB]
10 | 0.04 µM | > 30 µM (inactive) | > 30 µM (inactive) | > 30 µM (inactive) | > 30 µM (inactive) | > 30 µM (inactive) | > 30 µM (inactive) | > 30 µM (inactive) | – | > 30 µM (inactive) | > 30 µM (inactive) | > 30 µM (inactive) | > 30 µM (inactive) | > 30 µM (inactive) | > 30 µM (inactive) | – | COc1cc(OC)c(/C=C/S(=O)(=O)Cc2ccc(OC)c(NCC(=O)O)c2)c(OC)c1 [RIGOSERTIB]
11 | > 30 µM (inactive) | – | > 30 µM (inactive) | > 30 µM (inactive) | > 30 µM (inactive) | > 30 µM (inactive) | > 30 µM (inactive) | > 30 µM (inactive) | > 30 µM (inactive) | – | > 30 µM (inactive) | > 30 µM (inactive) | > 30 µM (inactive) | – | > 30 µM (inactive) | > 30 µM (inactive) | CC[C@@H]1C(=O)N(C)c2cnc(Nc3ccc(C(=O)N[C@H]4CC[C@H](N5CCN(CC6CC6)CC5)CC4)cc3OC)nc2N1C(C)C [VOLASERTIB]
